Source: patent US9963442B2, “Pyridones as herbicides” (E I DU PONT DE NEMOURS AND COMPANY, priority 2014, dated 2018)

Experiments:
Format in all cases: in vivo
Settings in all cases: scale 0 to 100, 0 is no effect, 100 is complete control
[1] = tested on: barnyardgrass (Echinochloa crus-galli); experiment: Test C preemergence
Description: (§1) Seeds of plant species selected from blackgrass (Alopecurus myosuroides), Italian ryegrass (Lolium multiflorum), winter wheat (Triticum aestivum), galium (catchweed bedstraw, Galium aparine), corn (Zea mays), large (Lg) crabgrass (Digitaria sanguinalis), giant foxtail (Setaria faberii), johnsongrass (Sorghum halepense), lambsquarters (Chenopodium album), morningglory (Ipomoea coccinea), yellow nutsedge (Cyperus esculentus), pigweed (Amaranthus retroflexus), ragweed (common ragweed, Ambrosia elatior), soybean (Glycine max), barnyardgrass (Echinochloa crus-galli), oilseed rape (Brassica napus), waterhemp (common waterhemp, Amaranthus rudis), and velvetleaf (Abutilon theophrasti) were planted into a blend of loam soil and sand and treated preemergence with test chemicals formulated in a non-phytotoxic solvent mixture which included a surfactant. At the same time, plants selected from these crop and weed species and also chickweed (common chickweed, Stellaria media), kochia (Kochia scoparia), and wild oat (Avena fatua), were planted in pots containing Sunshine Redi-Earth® planting medium comprising spaghnum peat moss, vermiculite, starter nutrients and dolomitic limestone and treated with postemergence applications of test chemicals formulated in the same manner. Plants ranged in height from 2 to 18 cm (1- to 4-leaf stage) for postemergence treatments. Treated plants and controls were maintained in a greenhouse for 13 to 15 days, after which time all species were compared to controls and visually evaluated. Plant response ratings, summarized in Table C, are based on a scale of 0 to 100 where 0 is no effect and 100 is complete control. A dash (-) response means no test result.

[2] = tested on: yellow nutsedge (Cyperus esculentus); experiment: Test C preemergence
Description: as §1

[3] = tested on: morningglory (Ipomoea coccinea); experiment: Test C preemergence
Description: as §1

[4] = tested on: velvetleaf (Abutilon theophrasti); experiment: Test C preemergence
Description: as §1

[5] = tested on: ragweed (common ragweed, Ambrosia elatior); experiment: Test C preemergence
Description: as §1

[6] = tested on: winter wheat (Triticum aestivum); experiment: Test C preemergence
Description: as §1

[7] = tested on: oilseed rape (Brassica napus); experiment: Test C preemergence
Description: as §1

[8] = tested on: corn (Zea mays); experiment: Test C preemergence
Description: as §1

[9] = tested on: Italian ryegrass (Lolium multiflorum); experiment: Test C preemergence
Description: as §1

[10] = tested on: barnyardgrass (Echinochloa crus-galli); experiment: Test C postemergence
Description: as §1

[11] = tested on: waterhemp (common waterhemp, Amaranthus rudis); experiment: Test C postemergence
Description: as §1

[12] = tested on: yellow nutsedge (Cyperus esculentus); experiment: Test C postemergence
Description: as §1

[13] = tested on: morningglory (Ipomoea coccinea); experiment: Test C postemergence
Description: as §1

[14] = tested on: galium (catchweed bedstraw, Galium aparine); experiment: Test C postemergence
Description: as §1

[15] = tested on: soybean (Glycine max); experiment: Test C postemergence
Description: as §1

[16] = tested on: velvetleaf (Abutilon theophrasti); experiment: Test C postemergence
Description: as §1

[17] = tested on: kochia (Kochia scoparia); experiment: Test C postemergence
Description: as §1

[18] = tested on: blackgrass (Alopecurus myosuroides); experiment: Test C postemergence
Description: as §1

[19] = tested on: winter wheat (Triticum aestivum); experiment: Test C postemergence
Description: as §1

[20] = tested on: johnsongrass (Sorghum halepense); experiment: Test C postemergence
Description: as §1

[21] = tested on: corn (Zea mays); experiment: Test C postemergence
Description: as §1

[22] = tested on: Italian ryegrass (Lolium multiflorum); experiment: Test C postemergence
Description: as §1

[23] = tested on: giant foxtail (Setaria faberii); experiment: Test C postemergence
Description: as §1

O=c1cccc(Oc2ncc(Cl)cn2)n1-c1ncc(Cl)cn1 [Compound 6]
Plant response rating, Barnyardgrass ([1]; 16 g ai/ha): 0
Plant response rating, Barnyardgrass ([1]; 31 g ai/ha): 5
Plant response rating, Barnyardgrass ([1]; 62 g ai/ha): 10
Plant response rating, Barnyardgrass ([1]; 125 g ai/ha): 40
Plant response rating, Nutsedge, Yellow ([2]; 16 g ai/ha): 0
Plant response rating, Nutsedge, Yellow ([2]; 31 g ai/ha): 0
Plant response rating, Nutsedge, Yellow ([2]; 62 g ai/ha): 0
Plant response rating, Nutsedge, Yellow ([2]; 125 g ai/ha): 5
Plant response rating, Morningglory ([3]; 16 g ai/ha): 5
Plant response rating, Morningglory ([3]; 31 g ai/ha): 5
Plant response rating, Morningglory ([3]; 62 g ai/ha): 20
Plant response rating, Morningglory ([3]; 125 g ai/ha): 55
Plant response rating, Velvetleaf ([4]; 16 g ai/ha): 10
Plant response rating, Velvetleaf ([4]; 31 g ai/ha): 25
Plant response rating, Velvetleaf ([4]; 62 g ai/ha): 40
Plant response rating, Velvetleaf ([4]; 125 g ai/ha): 80
Plant response rating, Ragweed ([5]; 16 g ai/ha): 25
Plant response rating, Ragweed ([5]; 31 g ai/ha): 25
Plant response rating, Ragweed ([5]; 62 g ai/ha): 70
Plant response rating, Ragweed ([5]; 125 g ai/ha): 85
Plant response rating, Wheat ([6]; 16 g ai/ha): 0
Plant response rating, Wheat ([6]; 31 g ai/ha): 0
Plant response rating, Wheat ([6]; 62 g ai/ha): 5
Plant response rating, Wheat ([6]; 125 g ai/ha): 0
Plant response rating, Oilseed Rape ([7]; 16 g ai/ha): 30
Plant response rating, Oilseed Rape ([7]; 31 g ai/ha): 90
Plant response rating, Oilseed Rape ([7]; 62 g ai/ha): 98
Plant response rating, Oilseed Rape ([7]; 125 g ai/ha): 98
Plant response rating, Corn ([8]; 16 g ai/ha): 0
Plant response rating, Corn ([8]; 31 g ai/ha): 5
Plant response rating, Corn ([8]; 62 g ai/ha): 0
Plant response rating, Corn ([8]; 125 g ai/ha): 5
Plant response rating, Ryegrass, Italian ([9]; 16 g ai/ha): 0
Plant response rating, Ryegrass, Italian ([9]; 31 g ai/ha): 5
Plant response rating, Ryegrass, Italian ([9]; 62 g ai/ha): 5
Plant response rating, Ryegrass, Italian ([9]; 125 g ai/ha): 5
Plant response rating, Barnyardgrass ([10]; 16 g ai/ha): 5
Plant response rating, Barnyardgrass ([10]; 31 g ai/ha): 5
Plant response rating, Barnyardgrass ([10]; 62 g ai/ha): 5
Plant response rating, Barnyardgrass ([10]; 125 g ai/ha): 10
Plant response rating, Waterhemp ([11]; 16 g ai/ha): 60
Plant response rating, Waterhemp ([11]; 31 g ai/ha): 75
Plant response rating, Waterhemp ([11]; 62 g ai/ha): 70
Plant response rating, Waterhemp ([11]; 125 g ai/ha): 70
Plant response rating, Nutsedge, Yellow ([12]; 16 g ai/ha): 0
Plant response rating, Nutsedge, Yellow ([12]; 31 g ai/ha): 5
Plant response rating, Nutsedge, Yellow ([12]; 62 g ai/ha): 5
Plant response rating, Nutsedge, Yellow ([12]; 125 g ai/ha): 5
Plant response rating, Morningglory ([13]; 16 g ai/ha): 50
Plant response rating, Morningglory ([13]; 31 g ai/ha): 75
Plant response rating, Morningglory ([13]; 62 g ai/ha): 65
Plant response rating, Morningglory ([13]; 125 g ai/ha): 80
Plant response rating, Galium ([14]; 16 g ai/ha): 50
Plant response rating, Galium ([14]; 31 g ai/ha): 60
Plant response rating, Galium ([14]; 62 g ai/ha): 60
Plant response rating, Galium ([14]; 125 g ai/ha): 80
Plant response rating, Soybean ([15]; 16 g ai/ha): 40
Plant response rating, Soybean ([15]; 31 g ai/ha): 45
Plant response rating, Soybean ([15]; 62 g ai/ha): 60
Plant response rating, Soybean ([15]; 125 g ai/ha): 70
Plant response rating, Velvetleaf ([16]; 16 g ai/ha): 50
Plant response rating, Velvetleaf ([16]; 31 g ai/ha): 65
Plant response rating, Velvetleaf ([16]; 62 g ai/ha): 75
Plant response rating, Velvetleaf ([16]; 125 g ai/ha): 75
Plant response rating, Kochia ([17]; 16 g ai/ha): 50
Plant response rating, Kochia ([17]; 31 g ai/ha): 60
Plant response rating, Kochia ([17]; 62 g ai/ha): 80
Plant response rating, Kochia ([17]; 125 g ai/ha): 85
Plant response rating, Blackgrass ([18]; 16 g ai/ha): 0
Plant response rating, Blackgrass ([18]; 31 g ai/ha): 0
Plant response rating, Blackgrass ([18]; 62 g ai/ha): 5
Plant response rating, Blackgrass ([18]; 125 g ai/ha): 5
Plant response rating, Wheat ([19]; 16 g ai/ha): 0
Plant response rating, Wheat ([19]; 31 g ai/ha): 0
Plant response rating, Wheat ([19]; 62 g ai/ha): 0
Plant response rating, Wheat ([19]; 125 g ai/ha): 0
Plant response rating, Johnsongrass ([20]; 16 g ai/ha): 0
Plant response rating, Johnsongrass ([20]; 31 g ai/ha): 5
Plant response rating, Johnsongrass ([20]; 62 g ai/ha): 5
Plant response rating, Johnsongrass ([20]; 125 g ai/ha): 5
Plant response rating, Corn ([21]; 16 g ai/ha): 5
Plant response rating, Corn ([21]; 31 g ai/ha): 10
Plant response rating, Corn ([21]; 62 g ai/ha): 10
Plant response rating, Corn ([21]; 125 g ai/ha): 20
Plant response rating, Ryegrass, Italian ([22]; 16 g ai/ha): 0
Plant response rating, Ryegrass, Italian ([22]; 31 g ai/ha): 0
Plant response rating, Ryegrass, Italian ([22]; 62 g ai/ha): 0
Plant response rating, Ryegrass, Italian ([22]; 125 g ai/ha): 0
Plant response rating, Foxtail, Giant ([23]; 16 g ai/ha): 5
Plant response rating, Foxtail, Giant ([23]; 31 g ai/ha): 5
Plant response rating, Foxtail, Giant ([23]; 62 g ai/ha): 5
Plant response rating, Foxtail, Giant ([23]; 125 g ai/ha): 10
